Source: patent US20190223443A1, “Methods to Increase Corn Growth” (Valent BioSciences LLC, priority 2015, published 2019)

Legend:
Assay type in all cases: in vivo
[1] = test system: Hybrid corn; assay: Vigor rating after foliar treatment at V2, field, Chabás, Santa Fe, Argentina (Example 1); conditions: 1 to 9 scale (untreated=5.0)
Description: Hybrid corn was grown under conventional tillage in Chabás, Santa Fe, Argentina. At V2 growth stage, GA3 or a combination of GA3 and ABA was applied as a foliar treatment. Vigor was rated on a 1 to 9 scale (untreated=5.0) following spray applications at the times specified in Table 1.

[2] = test system: Hybrid corn; assay: Final yield, field, Chabás, Santa Fe, Argentina (Example 1); conditions: untreated 8096
[3] = test system: Hybrid corn; assay: Corn trial under conventional tillage, Lozada, Argentina, sprayed at V3, yield at harvest (Example 3); conditions: for Yield difference from control treatment: difference of the Yield (kg/ha) column; for Yield: untreated 3840
Description: In a corn trial under conventional tillage in Lozada, Argentina, hybrid corn was planted and sprayed at 16 days post-planting at the V3 growth stage.

[4] = test system: Hybrid 1 and Hybrid 2 corn; assay: Field study Woodstock, Ill., sprayed at V2, shoot height (Examples 4 and 8); conditions: for Growth response to spray treatment (in words): sprayed at V2
Description: (§1) A field study was conducted at Woodstock, Ill. Seeds of two commercial varieties were sown: Hybrid 1 was northern corn belt variety with 100 days to maturity, while Hybrid 2 was a central corn belt variety with 111 days to maturity. Corn of these two varieties was sown into cool soil on May 7, 2014. Plants were sprayed at V2 with solutions containing a non-ionic surfactant (0.25%, v/v) at 15 gallons of spray solution/acre and growth was followed for 14 days. At seven days and 14 days after treatment shoot heights in centimeters were measured for 60 plants in each replicate.
as §1, with “GA3 refers to gibberellic acid” for “At seven days”, “ABA refers to abscisic acid. Results of the study are found in Table 10 below describing” for “14 days after treatment”, “height” for “heights”, “centimeters.” for “centimeters were measured for 60 plants in each replicate.”

[5] = test system: Hybrid 1 and Hybrid 2 corn; assay: Field study, sprayed at V4, plant height (Examples 5 and 9)
Description: This study was conducted and the data analyzed as described above in Example 3 with the following the exceptions. The plants were sprayed at the V4 stage and plant height was measured at seven and 13 days post treatment.
Another study was conducted and the data analyzed as described Example 8, above, with the following the exceptions. The plants were sprayed at the V4 stage and plant height was measured at seven and 13 days post treatment. Results of this study are found in Table 11, below, describing shoot height in centimeters.

[6] = test system: Hybrid 1, Hybrid 2 and Hybrid 3 corn; assay: Long Grove, Ill., sprayed at V4, distance of growing point relative to soil surface (Examples 6 and 10); conditions: for Distance of the growing point relative to the soil surface, 7 days post treatment / Distance of the growing point relative to the soil surface, 13 days post treatment / Distance of the growing point relative to the soil surface, 20 days post treatment / Distance of the growing point relative to the soil surface, 4 days post treatment: Table 7; for Distance of growing point relative to soil surface, 7 days post treatment / Distance of growing point relative to soil surface, 13 days post treatment / Distance of growing point relative to soil surface, 20 days post treatment / Distance of growing point relative to soil surface, 4 days post treatment: Table 12
Description: In this example, seeds of three varieties were sown at Long Grove, Ill. and were grown under similar conditions as in Examples 3 to 6. Three hybrid corn varieties were grown, Hybrid 1 and 2 as above, and Hybrid 3 which was another central corn belt variety requiring 111 days to maturity.
At the early V-stages, the growing point of the corn stem is below the soil surface and emerges from the soil when the plants are at V5 or later, depending on the variety. In spring, the soil is generally cooler than the air temperature. Therefore, there would be an advantage to getting the growing point above the soil surface to facilitate faster growth.
The plants were sprayed at the V4 growth stage. Plants were dug from the ground at days after spray. Stems of five plants per replicate, three replicates per treatment were split and the distance of the growing point relative to the soil surface was determined in mm.
Seeds of three varieties were sown at Long Grove, Ill. and were grown under similar conditions as in Example 8, above. Three hybrid corn varieties were grown, Hybrid 1 and 2 as described in Examples 8 and 9, above, and Hybrid 3 which was another central corn belt variety requiring 111 days to maturity. The plants were sprayed at the V4 growth stage. Plants were dug from the ground at days after spray. Stems of five plants per replicate, three replicates per treatment were split and the distance of the growing point relative to the soil surface was determined in mm. Results of this study are found in Table 12, below, describing distance of growing point relative to soil surface in millimeters.

[7] = test system: corn hybrid B73 X Mo17; assay: Greenhouse study Long Grove, Ill., sprayed at V1-V2, change in height and synergy (Example 7)
Description: A greenhouse study was conducted at Long Grove, Ill. Seeds of the corn hybrid B73 X Mo17 was sown into potted soil on May 7, 2014. Plants were sprayed at 11 days post sowing (V1-V2) with solutions containing a non-ionic surfactant (0.25%, v/v) and growth was followed for 6 days. GA3 refers to gibberellic acid and ABA refers to abscisic acid. Results of the study described in 3. above can be seen in the following tables describing change in height in centimeters from day of treatment (Table 8) and change in height in centimeters from day of treatment compared to control (Table 9).
Synergy is calculated as follows: […]
Observed difference in height from control/Expected difference in height from control, where expected difference in height from control is the sum of the observed difference in height of each active ingredient applied alone. If the ratio between the experimentally observed efficacy of the mixture and the expected efficacy of the mixture is greater than 1, than synergistic interactions are present in the mixture.

[8] = GA3 16 g/ha, mixtures plus ABA as labelled
[9] = GA3 120 ppm, mixtures plus ABA 12 (10:1), 10 (12:1) or 8.6 ppm (14:1)

## C=C1C[C@]23C[C@@]1(O)CC[C@H]2[C@@]12C=C[C@H](O)[C@@](C)(C(=O)O1)[C@H]2[C@@H]3C(=O)O [GA3, gibberellic acid]
[1]; GA3 8 g/ha
  Vigor 3 d post-spraying: 5.2
  Vigor 7 d post-spraying: 5.3
  Vigor 15 d post-spraying: 5.5
[1]; [8]
  Vigor 3 d post-spraying: 5.5
  Vigor 7 d post-spraying: 5.6
  Vigor 15 d post-spraying: 6.0
[2]; GA3 8 g/ha
  Yield: 8355 kg/ha
[2]; [8]
  Yield: 8769 kg/ha
[3]; GA3 8 g/ha
  Yield difference from control treatment: 370
  Yield: 4210 kg/ha
[3]; [8]
  Yield difference from control treatment: 345
  Yield: 4185 kg/ha
[4]; Hybrid 1, Table 5, control 0:0 37.75
  Shoot height, 7 days post treatment: 36.07 cm
[4]; Hybrid 1, Table 5, control 0:0 57.90
  Shoot height, 14 days post treatment: 57.08 cm
[4]; Hybrid 1, Table 10, control 0:0 37.75
  Shoot height, 7 days post treatment: 36.07 cm
[4]; Hybrid 1, Table 10, control 0:0 57.90
  Shoot height, 14 days post treatment: 57.08 cm
[4]; Hybrid 1
  Growth response to spray treatment (in words): did not respond
[4]; Hybrid 2, Table 5, control 0:0 29.56
  Shoot height, 7 days post treatment: 31.33 cm
[4]; Hybrid 2, Table 5, control 0:0 50.16
  Shoot height, 14 days post treatment: 51.20 cm
[4]; Hybrid 2, Table 10, control 0:0 29.56
  Shoot height, 7 days post treatment: 31.33 cm
[4]; Hybrid 2, Table 10, control 0:0 50.16
  Shoot height, 14 days post treatment: 51.20 cm
[4]; Hybrid 2
  Growth response to spray treatment (in words): growth increased
[5]; Hybrid 1, Table 6, control 0:0 76.50
  Plant height, 7 days post treatment: 78.60 cm
[5]; Hybrid 1, Table 6, control 0:0 117.61
  Plant height, 13 days post treatment: 116.44 cm
[5]; Hybrid 1, Table 11, control 0:0 76.50
  Shoot height, 7 days post treatment: 78.60 cm
[5]; Hybrid 1, Table 11, control 0:0 117.61
  Shoot height, 13 days post treatment: 116.44 cm
[5]; Hybrid 2, Table 6, control 0:0 63.76
  Plant height, 7 days post treatment: 68.25 cm
[5]; Hybrid 2, Table 6, control 0:0 98.71
  Plant height, 13 days post treatment: 102.40 cm
[5]; Hybrid 2, Table 11, control 0:0 63.76
  Shoot height, 7 days post treatment: 68.25 cm
[5]; Hybrid 2, Table 11, control 0:0 98.71
  Shoot height, 13 days post treatment: 102.40 cm
[6]; Hybrid 1, control 0:0 17.47
  Distance of the growing point relative to the soil surface, 7 days post treatment: 34.53 mm
  Distance of growing point relative to soil surface, 7 days post treatment: 34.53 mm
[6]; Hybrid 1, control 0:0 166.40
  Distance of the growing point relative to the soil surface, 13 days post treatment: 163.27 mm
  Distance of growing point relative to soil surface, 13 days post treatment: 163.27 mm
[6]; Hybrid 1, control 0:0 644.00
  Distance of the growing point relative to the soil surface, 20 days post treatment: 603.80 mm
  Distance of growing point relative to soil surface, 20 days post treatment: 603.80 mm
[6]; Hybrid 1, control 0:0 −1.13
  Distance of the growing point relative to the soil surface, 4 days post treatment: 4.20 mm
  Distance of growing point relative to soil surface, 4 days post treatment: 4.20 mm
[6]; Hybrid 2, control 0:0 0.80
  Distance of the growing point relative to the soil surface, 4 days post treatment: 1.87 mm
  Distance of growing point relative to soil surface, 4 days post treatment: 1.87 mm
[6]; Hybrid 2, control 0:0 18.80
  Distance of the growing point relative to the soil surface, 7 days post treatment: 24.07 mm
  Distance of growing point relative to soil surface, 7 days post treatment: 24.07 mm
[6]; Hybrid 2, control 0:0 128.87
  Distance of the growing point relative to the soil surface, 13 days post treatment: 130.93 mm
  Distance of growing point relative to soil surface, 13 days post treatment: 130.93 mm
[6]; Hybrid 2, control 0:0 517.13
  Distance of the growing point relative to the soil surface, 20 days post treatment: 515.53 mm
  Distance of growing point relative to soil surface, 20 days post treatment: 515.53 mm
[6]; Hybrid 3, control 0:0 0.53
  Distance of the growing point relative to the soil surface, 4 days post treatment: 3.67 mm
  Distance of growing point relative to soil surface, 4 days post treatment: 3.67 mm
[6]; Hybrid 3, control 0:0 25.60
  Distance of the growing point relative to the soil surface, 7 days post treatment: 27.87 mm
  Distance of growing point relative to soil surface, 7 days post treatment: 27.87 mm
[6]; Hybrid 3, control 0:0 147.73
  Distance of the growing point relative to the soil surface, 13 days post treatment: 164.67 mm
  Distance of growing point relative to soil surface, 13 days post treatment: 164.67 mm
[6]; Hybrid 3, control 0:0 619.33
  Distance of the growing point relative to the soil surface, 20 days post treatment: 653.53 mm
  Distance of growing point relative to soil surface, 20 days post treatment: 653.53 mm
[7]; [9]
  Observed change in height from day of treatment compared to control, 2 days post treatment: 3.13 cm
  Observed change in height from day of treatment compared to control, 4 days post treatment: 4.97 cm
  Observed change in height from day of treatment compared to control, 6 days post treatment: 7.21 cm
[7]; GA3 120 ppm, mixtures plus ABA 12 (10:1), 10 (12:1) or 8.6 ppm (14:1), control 9.74
  Change in height from day of treatment, 2 days post treatment: 12.87 cm
[7]; GA3 120 ppm, mixtures plus ABA 12 (10:1), 10 (12:1) or 8.6 ppm (14:1), control 22.59
  Change in height from day of treatment, 4 days post treatment: 27.56 cm
[7]; GA3 120 ppm, mixtures plus ABA 12 (10:1), 10 (12:1) or 8.6 ppm (14:1), control 43.03
  Change in height from day of treatment, 6 days post treatment: 50.24 cm
[7]; applied alone, Tables 8 and 9
  Height of the corn compared to the control (in words): increased the height
